# Test results from patent US10004701B2, “Methods and compositions for treating infection” (UNIVERSITY OF ROCHESTER, priority 2012, dated 2018).
# Where a name gives a salt, the structure may show the parent alone. Read-outs that look alike come from different tables or passages of the source.
# Legend:
# Assay in all cases: AK assay 384-well format, Prestwick library screening
# E. coli = format: cell-based, Escherichia coli; settings: Escherichia coli, 3 h, 50 μM final drug concentration
# [1] = system: S. aureus strain USA300-0114; format: cell-based, Staphylococcus aureus; settings: Staphylococcus aureus, USA300, 3 h, 50 μM final drug concentration
# E. faecium = format: cell-based, Enterococcus faecium; settings: Enterococcus faecium, 3 h, 50 μM final drug concentration
# P. aeruginosa = format: cell-based, Pseudomonas aeruginosa; settings: Pseudomonas aeruginosa, 3 h, 50 μM final drug concentration
# [2] = system: A. baumannii strain 98-37-09; format: cell-based, Acinetobacter baumannii; settings: Acinetobacter baumannii, 983709, 3 h, 50 μM final drug concentration
# E. cloacae = format: cell-based, Enterobacter cloacae; settings: Enterobacter cloacae, 3 h, 50 μM final drug concentration
# K. pneumoniae = format: cell-based, Klebsiella pneumoniae; settings: Klebsiella pneumoniae, 3 h, 50 μM final drug concentration
# [3] = planktonic E. coli, positive cutoff 3-fold increase, read-out: AK-based Prestwick library screening result, E. coli (fold increase in extracellular AK activity)
# [4] = planktonic S. aureus, positive cutoff 3-fold increase, read-out: AK-based Prestwick library screening result, S. aureus (fold increase in extracellular AK activity)
# [5] = planktonic E. faecium, positive cutoff 3-fold increase, read-out: AK-based Prestwick library screening result, E. faecium (fold increase in extracellular AK activity)
# [6] = planktonic P. aeruginosa, positive cutoff 3-fold increase, read-out: AK-based Prestwick library screening result, P. aeruginosa (fold increase in extracellular AK activity)
# [7] = planktonic A. baumannii, positive cutoff 3-fold increase, read-out: AK-based Prestwick library screening result, A. baumannii (fold increase in extracellular AK activity)
# [8] = planktonic E. cloacae, positive cutoff 3-fold increase, read-out: AK-based Prestwick library screening result, E. cloacae (fold increase in extracellular AK activity)
# [9] = planktonic K. pneumoniae, positive cutoff 3-fold increase, read-out: AK-based Prestwick library screening result, K. pneumoniae (fold increase in extracellular AK activity)
# [10] = planktonic, cutoff for positive-scoring molecules 3-fold increase, read-out: AK-based Prestwick Library Screening Results, E. coli (fold increase in extracellular AK activity)
# [11] = planktonic, cutoff for positive-scoring molecules 3-fold increase, read-out: AK-based Prestwick Library Screening Results, S. aureus (fold increase in extracellular AK activity)
# [12] = planktonic, cutoff for positive-scoring molecules 3-fold increase, read-out: AK-based Prestwick Library Screening Results, E. faecium (fold increase in extracellular AK activity)
# [13] = planktonic, cutoff for positive-scoring molecules 3-fold increase, read-out: AK-based Prestwick Library Screening Results, P. aeruginosa (fold increase in extracellular AK activity)
# [14] = planktonic, cutoff for positive-scoring molecules 3-fold increase, read-out: AK-based Prestwick Library Screening Results, A. baumannii (fold increase in extracellular AK activity)
# [15] = planktonic, cutoff for positive-scoring molecules 3-fold increase, read-out: AK-based Prestwick Library Screening Results, E. cloacae (fold increase in extracellular AK activity)
# [16] = planktonic, cutoff for positive-scoring molecules 3-fold increase, read-out: AK-based Prestwick Library Screening Results, K. pneumoniae (fold increase in extracellular AK activity)
# [17] = planktonic S. aureus, 384-well, cutoff for positive-scoring molecules 3-fold increase, read-out: AK-based Prestwick Library Screening Results: S. aureus (increase in extracellular AK activity)
# [18] = planktonic E. faecium, 384-well, cutoff for positive-scoring molecules 3-fold increase, read-out: AK-based Prestwick Library Screening Results: E. faecium (increase in extracellular AK activity)
# [19] = planktonic P. aeruginosa, 384-well, cutoff for positive-scoring molecules 3-fold increase, read-out: AK-based Prestwick Library Screening Results: P. aeruginosa (increase in extracellular AK activity)
# [20] = planktonic A. baumannii, 384-well, cutoff for positive-scoring molecules 3-fold increase, read-out: AK-based Prestwick Library Screening Results: A. baumannii (increase in extracellular AK activity)
# [21] = planktonic E. cloacae, 384-well, cutoff for positive-scoring molecules 3-fold increase, read-out: AK-based Prestwick Library Screening Results: E. cloacae (increase in extracellular AK activity)
# [22] = planktonic K. pneumoniae, 384-well, cutoff for positive-scoring molecules 3-fold increase, read-out: AK-based Prestwick Library Screening Results: K. pneumoniae (increase in extracellular AK activity)
compound,measurement,setting,value
O=C(Nc1ccc([N+](=O)[O-])cc1Cl)c1cc(Cl)ccc1O [Niclosamide],fold induction at 50 µM,"E. coli; 384-well format, cutoff for positive-scoring molecules 3-fold increase, read-out: AK-based Prestwick Library Screening Results, E. coli (increase in extracellular AK activity)",0.1
same,fold induction at 50 µM,"[1]; 384-well format, cutoff for positive-scoring molecules 3-fold increase, read-out: AK-based Prestwick Library Screening Results, S. aureus (increase in extracellular AK activity)",0.4
same,fold induction at 50 µM,"E. faecium; 384-well format, cutoff for positive-scoring molecules 3-fold increase, read-out: AK-based Prestwick Library Screening Results, E. faecium (increase in extracellular AK activity)",0.1
same,fold induction at 50 µM,"P. aeruginosa; 384-well format, cutoff for positive-scoring molecules 3-fold increase, read-out: AK-based Prestwick Library Screening Results, P. aeruginosa (increase in extracellular AK activity)",0.1
same,fold induction at 50 µM,"[2]; 384-well format, cutoff for positive-scoring molecules 3-fold increase, read-out: AK-based Prestwick Library Screening Results, A. baumannii (increase in extracellular AK activity)",0.2
same,fold induction at 50 µM,"E. cloacae; 384-well format, cutoff for positive-scoring molecules 3-fold increase, read-out: AK-based Prestwick Library Screening Results, E. cloacae (increase in extracellular AK activity)",0.5
same,fold induction at 50 µM,"K. pneumoniae; 384-well format, cutoff for positive-scoring molecules 3-fold increase, read-out: AK-based Prestwick Library Screening Results, K. pneumoniae (increase in extracellular AK activity)",0.1
CC(=O)O[C@]1(C(C)=O)CC[C@H]2[C@@H]3C=C(C)C4=CC(=O)CC[C@@H]4[C@H]3CC[C@@]21C [Nomegestrol acetate],fold induction at 50 µM,E. coli; [3],1.1
same,fold induction at 50 µM,[1]; [4],1
same,fold induction at 50 µM,E. faecium; [5],1.2
same,fold induction at 50 µM,P. aeruginosa; [6],1.1
same,fold induction at 50 µM,[2]; [7],1.1
same,fold induction at 50 µM,E. cloacae; [8],1.5
same,fold induction at 50 µM,K. pneumoniae; [9],1.1
CN(C)[C@@H]1C(O)=C(C(N)=O)C(=O)[C@@]2(O)C(O)=C3C(=O)c4c(O)ccc(Cl)c4[C@@H](O)[C@H]3C[C@@H]12 [Demeclocycline hydrochloride],fold induction at 50 µM,E. coli; [10],0.5
same,fold induction at 50 µM,[1]; [11],7.1
same,fold induction at 50 µM,E. faecium; [12],0.9
same,fold induction at 50 µM,P. aeruginosa; [13],0.4
same,fold induction at 50 µM,[2]; [14],3.4
same,fold induction at 50 µM,E. cloacae; [15],1.3
same,fold induction at 50 µM,K. pneumoniae; [16],0.2
O=c1[nH]cnc2c1ncn2[C@H]1CC[C@@H](CO)O1 [Didanosine],fold induction at 50 µM,"E. coli; planktonic E. coli, 384-well, […], read-out: AK-based Prestwick Library Screening Results: E. coli (increase in extracellular AK activity)",4.7
same,fold induction at 50 µM,[1]; [17],1.2
same,fold induction at 50 µM,E. faecium; [18],0.9
same,fold induction at 50 µM,P. aeruginosa; [19],1
same,fold induction at 50 µM,[2]; [20],1.5
same,fold induction at 50 µM,E. cloacae; [21],4.2
same,fold induction at 50 µM,K. pneumoniae; [22],0.9
CN[C@H]1CC[C@@H](c2ccc(Cl)c(Cl)c2)c2ccccc21 [Sertraline],fold induction at 50 µM,E. coli; [3],1.6
same,fold induction at 50 µM,[1]; [4],1.6
same,fold induction at 50 µM,E. faecium; [5],1.1
same,fold induction at 50 µM,P. aeruginosa; [6],1.2
same,fold induction at 50 µM,[2]; [7],2.9
same,fold induction at 50 µM,E. cloacae; [8],1.5
same,fold induction at 50 µM,K. pneumoniae; [9],1.4
O=C(O)/C=C/c1ccc(O)c(O)c1 [Caffeic acid],fold induction at 50 µM,E. coli; [10],1
same,fold induction at 50 µM,[1]; [11],0.8
same,fold induction at 50 µM,E. faecium; [12],0.9
same,fold induction at 50 µM,P. aeruginosa; [13],0.9
same,fold induction at 50 µM,[2]; [14],0.8
same,fold induction at 50 µM,E. cloacae; [15],1
same,fold induction at 50 µM,K. pneumoniae; [16],0.8
Cc1c(Nc2ncccc2C(=O)O)cccc1C(F)(F)F [Flunixin meglumine],fold induction at 50 µM,"E. coli; planktonic, […], read-out: AK-based Prestwick Library Screening Results, E. coli (fold increase in extracellular AK activity)",0.6
same,fold induction at 50 µM,"[1]; planktonic, […], read-out: AK-based Prestwick Library Screening Results, S. aureus (fold increase in extracellular AK activity)",0.5
same,fold induction at 50 µM,"E. faecium; planktonic, […], read-out: AK-based Prestwick Library Screening Results, E. faecium (fold increase in extracellular AK activity)",0.6
same,fold induction at 50 µM,"P. aeruginosa; planktonic, […], read-out: AK-based Prestwick Library Screening Results, P. aeruginosa (fold increase in extracellular AK activity)",0.6
same,fold induction at 50 µM,"[2]; planktonic, […], read-out: AK-based Prestwick Library Screening Results, A. baumannii (fold increase in extracellular AK activity)",0.5
same,fold induction at 50 µM,"E. cloacae; planktonic, […], read-out: AK-based Prestwick Library Screening Results, E. cloacae (fold increase in extracellular AK activity)",1
same,fold induction at 50 µM,"K. pneumoniae; planktonic, […], read-out: AK-based Prestwick Library Screening Results, K. pneumoniae (fold increase in extracellular AK activity)",0.5
C=C1CC[C@H](O)C/C1=C/C=C1\CCC[C@]2(C)[C@@H]([C@H](C)CCCC(C)C)CC[C@@H]12 [Cholecalciferol],fold induction at 50 µM,"E. coli; planktonic E. coli, […], read-out: AK-based Prestwick Library Screening Results, E. coli (increase in extracellular AK activity)",1
same,fold induction at 50 µM,"[1]; planktonic S. aureus, […], read-out: AK-based Prestwick Library Screening Results, S. aureus (increase in extracellular AK activity)",0.7
same,fold induction at 50 µM,"E. faecium; planktonic E. faecium, […], read-out: AK-based Prestwick Library Screening Results, E. faecium (increase in extracellular AK activity)",0.9
same,fold induction at 50 µM,"P. aeruginosa; planktonic P. aeruginosa, […], read-out: AK-based Prestwick Library Screening Results, P. aeruginosa (increase in extracellular AK activity)",0.9
same,fold induction at 50 µM,"[2]; planktonic A. baumannii, […], read-out: AK-based Prestwick Library Screening Results, A. baumannii (increase in extracellular AK activity)",0.8
same,fold induction at 50 µM,"E. cloacae; planktonic E. cloacae, […], read-out: AK-based Prestwick Library Screening Results, E. cloacae (increase in extracellular AK activity)",1
same,fold induction at 50 µM,"K. pneumoniae; planktonic K. pneumoniae, […], read-out: AK-based Prestwick Library Screening Results, K. pneumoniae (increase in extracellular AK activity)",0.7
CN1CCN(CCCN2c3ccccc3Sc3ccc(C(F)(F)F)cc32)CC1 [Trifluoperazine dihydrochloride],fold induction at 50 µM,"E. coli; planktonic E. coli, 384-well, cutoff for positive-scoring molecules 3-fold increase, read-out: AK-based Prestwick Library Screening Results: E. coli (increase in extracellular AK activity)",1.7
same,fold induction at 50 µM,[1]; [17],1.2
same,fold induction at 50 µM,E. faecium; [18],1.1
same,fold induction at 50 µM,P. aeruginosa; [19],1.4
same,fold induction at 50 µM,[2]; [20],3.4
same,fold induction at 50 µM,E. cloacae; [21],1.3
same,fold induction at 50 µM,K. pneumoniae; [22],1.5
